This note sets out measurements from US20110274661A1, “Attentuated Herpesvirus Encoding a Mek Pathway Polypeptide” (The University of Chicago, priority 2008, published 2011).

Molecules are shown by their SMILES.

Assay [1] deals with HT1080 cells. Description: R3616 viral yield in HT1080 cells with MEK inhibitor PD98059 or DMSO. The assay is classed as cell-based, human. The following applies: R3616 1 PFU/cell. As to the method: (§1) Inhibitor studies—For experiments employing the known MEK inhibitor, PD98059, HT1080 cells were starved over night in serum-free medium and then exposed to 40 μM of PD98059 (EMD Biosciences, San Diego, Calif.), or DMSO (1:1000 dilution) 6 hours prior to, and during, infection. At 12 hours post-infection, whole cell lysates were created as described above for immunoblotting.
Finally, to determine if MEK inhibition affects viral replication, DMSO or PD98059 (40 μM) was added to replicate cultures of HT1080 cells 6 hours prior to, and during, infection with R3616 (1 PFU/cell). The cells were harvested at 36 hours post-infection and viral yields were measured by plaque assays on Vero cell monolayers.

In assay [2] the test system is HT1080 cells infected with R3616. Briefly: Immunoblot of viral proteins and phosphorylated PKR in R3616-infected HT1080 cells treated with PD98059. The assay is classed as cell-based, human. As for the experimental part: Immunoblotting—Experiments to analyze the accumulation of viral proteins and phosphorylation of ERK, PKR and eIF-2α were performed on whole-cell lysates harvested on ice at either 12 or 14 hours post-infection with lysis buffer, sonicated for 10 seconds, and clarified by centrifugation. Total protein from the supernatant was quantified by the Bradford method and 20 μg of equilibrated protein was subjected to electrophoresis in 12% or 7.5% (vol/vol) denaturing polyacrylamide gels, transferred to PVDF membranes (Millipore Corporation), blocked, and reacted with primary antibody followed by appropriate secondary antibody.
as §1
To determine if MEK mediates the observed mutant Ras-dependent suppression of PKR activation and resultant accumulation of viral proteins in HT1080 cells infected with mutant virus R3616, the relative expressions of representative α (ICP27), β (UL42) and γ2(glycoprotein C) viral proteins in cells treated with a specific chemical inhibitor of MEK-1 (PD98059) were compared. Replicate cultures of HT1080 cells were serum-starved overnight prior to exposure to equal volumes of DMSO or PD98059 (40 μM) for 6 hours prior to infection with R3616 mutant virus (10 PFU/cell). DMSO or drug treatment was then continued until the cells were harvested at 12 hours post-infection. The cells were then lysed and the lysates were subjected to electrophoresis in denaturing polyacrylamide gels, followed by transferring to PVDF membranes and reacting with antibody to ICP27, UL42, or gC. […] To test whether the decrease in the accumulation of gC correlated with activation of PKR, the electrophoretically separated lysates were also probed with antibody to the auto-phosphorylated form of PKR (P-Thr446).
In general terms: Immunoblotting shows a protein as a band on a membrane.

Setting [3] is: PD98059 40 μM, R3616 10 PFU/cell, 12 hours post-infection.

As to `COc1cccc(-c2cc(=O)c3ccccc3o2)c1N` [PD98059], the “yield of R3616 mutant virus in the presence of PD98059” value in assay [1] (PD98059 40 μM 6 hours prior to and during infection, 36 hours post-infection) is on record as 1.67×10^5 PFU/ml. Moreover, the “fold lower yield of R3616 with PD98059 than with DMSO” value in assay [1] (PD98059 40 μM, 36 hours) was “approximately 15 fold”. Moreover, in assay [2] (PD98059 40 μM prior to and during infection with R3616), the “amount of activated PKR (P-Thr446)” value is “increased the amount of activated PKR”. For the same molecule, in assay [2] (setting [3]), the “accumulation of ICP27 and UL42 proteins” value is recorded as “slight effect”; the “amounts of gC that accumulated” value was “very dramatic decrease”.
